{
  "source": "patent US20150297593A1",
  "about": "(priority 2012, published 2015)",
  "key": {"[1]": {"tested_on": "influenza A virus (Mem71, H3N1)", "set-up": "species or system BALB/c mice", "conditions": "mouse, in vivo"}, "[2]": {"tested_on": "recombinant IL-33 (rIL-33)-induced AHR", "conditions": "mouse, in vivo"}, "[3]": {"tested_on": "nuocytes (CD45+Lin−ST2+cKit+Sca1+)", "type": "in vivo, BALB/c mice"}, "[4]": {"tested_on": "mouse lung nuocytes (Lin−ST2+)", "type": "cell-based", "conditions": "IL-2 50 ng/ml plus rIL-33 100 ng/ml, imatinib 0.1-1 μM"}, "[5]": {"tested_on": "human nuocytes isolated from the BAL fluid of patients with asthma", "type": "cell-based", "conditions": "imatinib 1 μM; rIL-2 50 ng/ml plus rIL-33 100 ng/ml for 24 hrs"}, "[6]": {"tested_on": "influenza A virus (Mem71, H3N1)", "type": "in vivo, Rag2−/− mice"}, "RSV": {"tested_on": "RSV", "assay": "RSV-induced AHR model", "type": "in vivo, BALB/c mice", "conditions": "100 mg/kg i.p. on day 1 post infection"}, "[7]": {"tested_on": "nuocytes (CD45+Lin−ST2+ckit+Sca1+)", "assay": "FACS count of BAL and lung nuocytes after rIL-33 in Rag2−/− mice", "conditions": "imatinib 100 mg/kg i.p. on day 1, day 5", "protocol": "In FIGS. 5C and 5D, BAL cells (FIG. 5C) or lung cells (FIG. 5D) were taken from 8 wk old Rag2^−/− mice (n=5 per group) on day 5, and further stimulated with PMA+ionomycin for 5 hr. The percentage of lung CD45^+Lin^−ST2^+ckit^+Sca1^+ cells was assessed by FACS. Third panels show dot plots for Lin^−ST2^+ cells in lung leukocytes (CD45^+). After gating on the Lin^−ST2^+cKit^+ cells, the cells were analyzed for c-Kit and Sca1 expression (fourth panels).\nWhole lungs were flushed with PBS injected into the right ventricle, removed, and rinsed in PBS. […] The digest was passed multiple times through an 18-gauge needle and allowed to incubate for another 30 min before filtered. RBCs were removed by 4-min incubation in lysis buffer (Sigma-Aldrich, St. Louis, Mo.) at room temperature. Single-cell suspensions of spleen lymphocytes were obtained by mechanical disruption and RBC lysis.\nCells were preincubated with anti-Fcy blocking mAb (2.4G2) and washed before staining. Cells were stained with anti-mouse PE-Texas red-conjugated CD45, FITC-conjugated CD3, CD19, CD11b, CD11c, CD49b, F4/80, Fc□R1; APC conjugated cKit,; PerCP conjugated cKit, Alexa Fluor 700-conjugated Sca1; PE conjugated biotinylated anti-ST2 antibodies. […] Cells were analyzed on a BDCanto flow cytometer (BD Biosciences, Franklin Lakes, N.J.) using FlowJo 8.3.3 software (Tree Star, Inc., Ashland, Oreg.)."}, "[8]": {"tested_on": "influenza A virus (Mem71, H3N1)", "conditions": "100 mg/kg i.p. on day 1; sera on day 11"}, "[9]": {"conditions": "100 mg/kg on day 1, day 5 post-infection"}, "[10]": {"conditions": "after imatinib treatment, data not shown"}},
  "data": [
    {"smiles": "Cc1ccc(NC(=O)c2ccc(CN3CCN(C)CC3)cc2)cc1Nc1nc(-c2cccnc2)cs1", "note": "[masitinib]", "values": [
      {"measurement": "H3N1-induced AHR", "setting": "[1]", "value": "abolished"},
      {"measurement": "H3N1-induced inflammation", "setting": "[1]", "value": "abolished"}
    ]},
    {"smiles": "Cc1ccc(NC(=O)c2ccc(CN3CCN(C)CC3)cc2)cc1Nc1nccc(-c2cccnc2)n1", "note": "[imatinib]", "values": [
      {"measurement": "AHR induced with recombinant IL-33", "setting": "[2]", "value": "could block"},
      {"measurement": "inflammation (BAL fluid cells)", "setting": "[1]", "value": "abolished"},
      {"measurement": "lung inflammation (BAL fluid cells)", "setting": "[1]", "value": "abolished"},
      {"measurement": "total number of NKT cells in the lung", "setting": "[3]; 100 mg/kg on day 1, day 5", "value": "had no effect"},
      {"measurement": "total number of conventional T cells in the lung", "setting": "[3]; 100 mg/kg on day 1, day 5", "value": "had no effect"},
      {"measurement": "frequency and absolute number of nuocytes in BAL fluid", "setting": "[3]; [9]", "value": "reduced"},
      {"measurement": "frequency and absolute number of nuocytes in the lungs", "setting": "[3]; [9]", "value": "reduced"},
      {"measurement": "frequency of NKT cells in BAL fluid", "setting": "[3]; [10]", "value": "slightly reduced"},
      {"measurement": "total number of BAL fluid cells", "setting": "[3]; [10]", "value": "slightly reduced"},
      {"measurement": "secretion of IL-5 by nuocytes (ELISA)", "setting": "[4]", "value": "reduced"},
      {"measurement": "secretion of IL-13 by nuocytes (ELISA)", "setting": "[4]", "value": "reduced"},
      {"measurement": "proliferation of mouse lung nuocytes (3H-thymidine incorporation)", "setting": "[4]; dose-dependent", "value": "blocked"},
      {"measurement": "production of IL-13 by human nuocytes", "setting": "[5]", "value": "blocked"},
      {"measurement": "H3N1 infection-induced inflammation in Rag2−/− mice", "setting": "[6]; 100 mg/kg i.p. on day 1, […]", "value": "inhibits"},
      {"measurement": "influenza-induced AHR in Rag2−/− mice", "setting": "[6]; mouse, in vivo", "value": "blocked"},
      {"measurement": "development of RSV-induced inflammation", "setting": "RSV", "value": "blocked"},
      {"measurement": "development of RSV-induced AHR", "setting": "RSV; assessed 6 days post-infection", "value": "blocked"},
      {"measurement": "number of BAL and lung nuocytes (airway nuocytophilia induced with rIL-33)", "setting": "[7]", "value": "reduced"},
      {"measurement": "anti-influenza IgG production", "setting": "[8]", "value": "no significant reduction"}
    ]}
  ]
}
